Legend:
[1] = Rate of dissolution in H2O at 25° C. of rebaudioside A polymorph and amorphous forms; type: physicochemical
[2] = type: physicochemical
Protocol: A solution of rebaudioside A (>97% pure by HPLC) was prepared in double distilled water (12.5 gm in 50 mL, 25% concentration) by stirring the mixture at 40° C. for 5 minutes. An amorphous form of rebaudioside A was formed by immediately using the clear solution for spray drying with the Lab-Plant spray drier SD-04 instrument (Lab-Plant Ltd., West Yorkshire, U.K.). The solution was fed through the feed pump into the nozzle atomizer which atomized it into a spray of droplets with the help of a constant flow of nitrogen/air. […] This dry powder (11-12 g, H2O 6.74%) was discharged continuously from the drying chamber and was collected in a bottle.

SMILES: C=C1C[C@@]23CC[C@H]4[C@@](C)(CCC[C@@]4(C)C(=O)O[C@@H]4O[C@H](CO)[C@@H](O)[C@H](O)[C@H]4O)[C@@H]2CC[C@]1(O[C@@H]1O[C@H](CO)[C@@H](O)[C@H](O[C@@H]2O[C@H](CO)[C@@H](O)[C@H](O)[C@H]2O)[C@H]1O[C@@H]1O[C@H](CO)[C@@H](O)[C@H](O)[C@H]1O)C3 [Form 3, rebaudioside A]
- Rate of dissolution in H2O at 25° C. (in words) [1]: High
- Rate of dissolution in H2O at 25° C. ([1]; per 5 minutes): (>30%/5 %/5 minutes

SMILES: C=C1C[C@@]23CC[C@H]4[C@@](C)(CCC[C@@]4(C)C(=O)O[C@@H]4O[C@H](CO)[C@@H](O)[C@H](O)[C@H]4O)[C@@H]2CC[C@]1(O[C@@H]1O[C@H](CO)[C@@H](O)[C@H](O[C@@H]2O[C@H](CO)[C@@H](O)[C@H](O)[C@H]2O)[C@H]1O[C@@H]1O[C@H](CO)[C@@H](O)[C@H](O)[C@H]1O)C3 [Form 1, rebaudioside A]
- Rate of dissolution in H2O at 25° C. (in words) [1]: Very low
- Rate of dissolution in H2O at 25° C. ([1]; per 60 minutes): (<0.2%/60 %/60 minutes

SMILES: C=C1C[C@@]23CC[C@H]4[C@@](C)(CCC[C@@]4(C)C(=O)O[C@@H]4O[C@H](CO)[C@@H](O)[C@H](O)[C@H]4O)[C@@H]2CC[C@]1(O[C@@H]1O[C@H](CO)[C@@H](O)[C@H](O[C@@H]2O[C@H](CO)[C@@H](O)[C@H](O)[C@H]2O)[C@H]1O[C@@H]1O[C@H](CO)[C@@H](O)[C@H](O)[C@H]1O)C3 [Form 4, rebaudioside A]
- solubility in water at room temperature [2]: > 35.0%
- Rate of dissolution in H2O at 25° C. (in words) [1]: High
- Rate of dissolution in H2O at 25° C. ([1]; per 5 minutes): (>35.0%/5 %/5 minutes

SMILES: C=C1C[C@@]23CC[C@H]4[C@@](C)(CCC[C@@]4(C)C(=O)O[C@@H]4O[C@H](CO)[C@@H](O)[C@H](O)[C@H]4O)[C@@H]2CC[C@]1(O[C@@H]1O[C@H](CO)[C@@H](O)[C@H](O[C@@H]2O[C@H](CO)[C@@H](O)[C@H](O)[C@H]2O)[C@H]1O[C@@H]1O[C@H](CO)[C@@H](O)[C@H](O)[C@H]1O)C3 [Form 2, rebaudioside A]
- Rate of dissolution in H2O at 25° C. (in words) [1]: Intermediate
- Rate of dissolution in H2O at 25° C. ([1]; per 5 minutes): (<30%/5 %/5 minutes
